{"source": "patent US9180163B2", "about": "“Parstatin peptides” (priority 2009, dated 2015)", "test_system": "cGMP content of myocardium", "experiment": "myocardial cGMP ELISA after ischemia-reperfusion", "type": "in vivo, rat", "settings": "1 μg/kg, 120 min reperfusion", "description": "To determine whether […] (1-26) protects the heart by a mechanism involving soluble guanylyl cyclase (sGC), rats were treated with ODQ (1 mg/kg, a sGC inhibitor) with or without […] (1-26) (1 μg/kg) prior to ischemia. ODQ abolished the reduction in infarct size caused by […] (1-26), but had no effect alone (FIG. 26A). Tissue accumulation of cGMP was measured after 120 min reperfusion from ischemic and non-ischemic myocardium. In these experiments, the cGMP was measured in the rat hearts by specific ELISA kits according to the manufacturer's instructions (Cayman Chemical, Ann Arbor, Mich.). The hearts (n=6/group) were excised after 120 min reperfusion and immediately frozen in liquid nitrogen, then stored at -80° C. until assayed. Frozen myocardial tissue samples in liquid nitrogen were ground to a fine powder in a stainless-steel mortar. Frozen tissue was dropped into 5-10 volumes (ml of solution/gram of tissue) of 5% trichloroacetic acid (TCA) in water. The samples were homogenized on ice […] using a polytron-type homogenizer. Centrifugation was at 30,000 r.p.m. at room temperature and the supernatant was collected for quantitative immunoassay of cGMP. […] (1-26) treatment group when compared to the control and sham treated groups respectively (FIG. 26B). No difference in cGMP tissue content was observed between the ischemic and non-ischemic zones within the control groups, however, […]"}
{"sequence": "MGPRRLLLVAACFSLCGPLLSARTRA (listed as Homo sapiens) [parstatin (1-26)]", "values": [{"measurement": "cGMP production in the ischemic zone vs non-ischemic zone", "value": 2.2, "unit": "fold"}, {"measurement": "tissue accumulation of cGMP in the ischemic tissue compared to control", "value": 4.6, "unit": "fold"}, {"measurement": "tissue accumulation of cGMP in the ischemic tissue compared to sham", "value": 10.9, "unit": "fold"}]}
